1 compound from patent US20040014671A1, “Preventives or remedies for heart failure” (priority 2000, published 2004) can be followed below.

Where a SMILES comes first, the peptide text is derived from it. [ ]: non-standard residue; d: D form. d2Nal = N[C@H](Cc1ccc2ccccc2c1)C(=O)O

The subject of the data set is dogs with occluded anterior descending coronary artery. The data set can be described thus: Cardiac function of dog with anterior descending coronary artery occlusion after intravenous administration. The data set is classed as in vivo. The settings on record: 100 μg/kg intravenously after occlusion. On the procedure:
Using a dog model of acute contractile dysfunction caused by occlusion of the anterior descending coronary artery, the inventors studied the cardiotonic action of pralmorelin.
The action of pralmorelin on the cardiac dysfunction deteriorated by occlusion of the coronary artery was evaluated by various hemodynamic parameters, cardiac output (CO), stroke volume (SV), maximal positive dP/dt of left ventricular pressure (+dP/dtmax), ejection fraction (EF), mean blood pressure (MBP), heart rate (HR), total peripheral resistance (TPR) and double product (RPP) as an index of myocardial oxygen consumption.
Pralmorelin dihydrochloride (hereunder referred to as KP-102) (prepared by the method described in WO 9304081) was dissolved in distilled water to prepare a 0.5 mg/mL solution.
In the experiment, adult beagles of either sex (weighing 9-11 kg) purchased from Nihon Nosan Kogyo K.K. (Kanagawa, Japan) were used. After arrival, the animals were allowed to eat a solid meal (CD-5, CLEA Japan, Inc. or Labo D Stock, Nark Corp.) and drink water in a room at a temperature of 20±2° C. and at a humidity of 55±15% under illumination for 12 hours a day (from 7:00 to 19:00); the animals were kept under these conditions for at least one week before use.
Anesthesia was introduced by intravenous administration of pentobarbital (30 mg/kg) and in order to maintain anesthesia, pentobarbital (5-6 mg/kg/hr) was injected continuously by means of an infusion pump (FP-W-100, Toyo Sangyo) through a polyethylene cannula retained in the right cephalic vein. The endotracheal cannula was inserted and the chest was opened at the left fourth intercostal space under artificial respiration in a tidal volume of 20 mL/kg at a rate of 18 breaths/min with an artificial respirator (SN-480-3 of Shinano Seisakusho). The left anterior descending coronary artery was carefully detached from the site of origin over a length of 1-2 cm and an occluding thread was passed through.
The chest was opened at the left fifth intercostal space and a 5-segment conductance catheter (CCS-108-DA, Unique Medical) was inserted from the cardiac apex so that all electrodes would be placed in the left ventricle. A catheter equipped with a 5 Fr microtip pressure transducer (pressure transducer catheter, Model MPC-500, MILLAR) was inserted into the left ventricle through the left carotid artery. The conductance catheter and the pressure transducer catheter inserted into the left ventricle were connected to a built-in amplifier in a ventricular volume-measuring instrument (Integral 3; VPR-1002, Unique Medical) and the changes in the left ventricular pressure (LVP) and the volume of the left ventricle were measured simultaneously. To determine the mean blood pressure (MBP), blood pressure was measured via a blood pressure amplifier (AP641G, Nihon Kohden) from the 5 Fr pressure transducer catheter inserted into the left femoral artery. Heart rate (HR) was measured with a cardiotachometer (AT-601G, Nihon Kohden) from the pulse waves of blood pressure.
The chest was opened again at the fourth intercostal space and in order to measure the cardiac output (CO(EMF)) (CO as determined by an electromagnetic blood flowmeter based method), a probe connected to an electromagnetic blood flowmeter (MFV-2100, Nihon Kohden) was fitted at the site of origin of the aorta. A spiral electrode was put in the ischemic region that occurred due to the occlusion of coronary artery and a surface electrocardiogram was recorded. A Doppler probe was fitted on the left anterior descending coronary artery and the blood flow was determined with a Doppler blood flowmeter (PD-20, Crystal Biotech). The anterior descending coronary artery was occluded with pulling up the occluding thread over a period of about 5 minutes. Complete occlusion of the blood vessel was confirmed by the change in the surface electrocardiogram and the disappearance of the Doppler sound. […]

On to `C[C@H](NC(=O)[C@@H](Cc1ccc2ccccc2c1)NC(=O)[C@@H](C)N)C(=O)N[C@@H](Cc1c[nH]c2ccccc12)C(=O)N[C@H](Cc1ccccc1)C(=O)N[C@@H](CCCCN)C(N)=O` [KP-102, D-alanyl-3-(naphthalen-2-yl)-D-alanyl-L-alanyl-L-tryptophyl-D-phenylalanyl-L-lysinamide] (H-[dA][d2Nal]AW[dF]K-NH2), for which the “change in LVEDP” value is “Neither of the control and KP-102 groups showed changes”; the “change in LVPsys” value was “Neither of the control and KP-102 groups showed changes”; the “change in double product (RPP), index of myocardial oxygen consumption” value is “Neither group experienced a change in RPP”; the “change in heart rate (HR)” value is “Neither of MBP and HR changed”. The “change in mean blood pressure (MBP)” value was “Neither of MBP and HR changed”; the “change in −dP/dtmax vs control group” value is “no significant change”. For the same compound, the “increase in stroke volume (SV) from baseline before administration” value (5 minutes after administration) stood at 5%. Moreover, the “maximal increase in ejection fraction (EF)” value (10 minutes) is listed as 10%. For the same compound, the “increase in +dP/dtmax from baseline before administration” value (10 minutes after administration) came out at 7%. In addition, under “10 minutes after administration, n=5”, the “maximum increase in cardiac output (CO) from baseline before administration” value was determined as 7%. Besides, the “change in total peripheral resistance (TPR)” value (significant vs control) was “TPR dropped following the administration”.
